Key:
[1] = system: Mus musculus; experiment: Hypoglycemic activity in C57BL/6J mouse assessed as reduction in postprandial blood glucose level at 2 mg/kg measured after 30 mins by maltose tolerance test; assay type: functional; conditions: 0.5 h
[2] = Inhibition of rice alpha-glucosidase by Lineweaver-Burk plot analysis; parameters: species or system Oryza sativa
[3] = system: Mus musculus; experiment: Hypoglycemic activity in C57BL/6J mouse assessed as postprandial blood glucose level at 2 mg/kg measured after 30 mins by maltose tolerance test (reference value: 368.49 +/-31.28 mg/dl); assay type: functional; conditions: 0.5 h
[4] = system: Mus musculus; experiment: Hypoglycemic activity in C57BL/6J mouse assessed as postprandial blood glucose level at 0.5 mg/kg measured after 30 mins by maltose tolerance test (reference value: 368.49 +/-31.28 mg/dl); assay type: functional
[5] = system: Mus musculus; experiment: Hypoglycemic activity in C57BL/6J mouse assessed as reduction in postprandial blood glucose level at 0.5 mg/kg measured after 15 mins by maltose tolerance test; assay type: functional; conditions: 0.25 h
[6] = system: Mus musculus; experiment: Hypoglycemic activity in C57BL/6J mouse assessed as reduction in postprandial blood glucose level at 1 mg/kg measured after 15 mins by maltose tolerance test; assay type: functional; conditions: 0.25 h
[7] = system: Mus musculus; experiment: Hypoglycemic activity in C57BL/6J mouse assessed as reduction in postprandial blood glucose level at 2 mg/kg measured after 15 mins by maltose tolerance test; assay type: functional; conditions: 0.25 h
[8] = system: Mus musculus; experiment: Hypoglycemic activity in C57BL/6J mouse assessed as postprandial blood glucose level at 1 mg/kg measured after 30 mins by maltose tolerance test (reference value: 368.49 +/-31.28 mg/dl); assay type: functional; conditions: 0.5 h
[9] = Inhibition of Aspergillus niger alpha-glucosidase by Lineweaver-Burk plot analysis
[10] = system: Mus musculus; experiment: Hypoglycemic activity in C57BL/6J mouse assessed as reduction in postprandial blood glucose level at 1 mg/kg measured after 30 mins by maltose tolerance test; assay type: functional; conditions: 0.5 h
[11] = system: Mus musculus; experiment: Hypoglycemic activity in C57BL/6J mouse assessed as reduction in postprandial blood glucose level at 0.5 mg/kg measured after 30 mins by maltose tolerance test; assay type: functional; conditions: 0.5 h
[12] = molecular target: T1, Alpha-mannosidase (Canavalia ensiformis) (UniProt C0HJB3); experiment: Potency index, ratio of Miglitol Ki to test compound Ki for inhibition of jack bean alpha-mannosidase measured per DNJ unit
T1 sequence (whole entry): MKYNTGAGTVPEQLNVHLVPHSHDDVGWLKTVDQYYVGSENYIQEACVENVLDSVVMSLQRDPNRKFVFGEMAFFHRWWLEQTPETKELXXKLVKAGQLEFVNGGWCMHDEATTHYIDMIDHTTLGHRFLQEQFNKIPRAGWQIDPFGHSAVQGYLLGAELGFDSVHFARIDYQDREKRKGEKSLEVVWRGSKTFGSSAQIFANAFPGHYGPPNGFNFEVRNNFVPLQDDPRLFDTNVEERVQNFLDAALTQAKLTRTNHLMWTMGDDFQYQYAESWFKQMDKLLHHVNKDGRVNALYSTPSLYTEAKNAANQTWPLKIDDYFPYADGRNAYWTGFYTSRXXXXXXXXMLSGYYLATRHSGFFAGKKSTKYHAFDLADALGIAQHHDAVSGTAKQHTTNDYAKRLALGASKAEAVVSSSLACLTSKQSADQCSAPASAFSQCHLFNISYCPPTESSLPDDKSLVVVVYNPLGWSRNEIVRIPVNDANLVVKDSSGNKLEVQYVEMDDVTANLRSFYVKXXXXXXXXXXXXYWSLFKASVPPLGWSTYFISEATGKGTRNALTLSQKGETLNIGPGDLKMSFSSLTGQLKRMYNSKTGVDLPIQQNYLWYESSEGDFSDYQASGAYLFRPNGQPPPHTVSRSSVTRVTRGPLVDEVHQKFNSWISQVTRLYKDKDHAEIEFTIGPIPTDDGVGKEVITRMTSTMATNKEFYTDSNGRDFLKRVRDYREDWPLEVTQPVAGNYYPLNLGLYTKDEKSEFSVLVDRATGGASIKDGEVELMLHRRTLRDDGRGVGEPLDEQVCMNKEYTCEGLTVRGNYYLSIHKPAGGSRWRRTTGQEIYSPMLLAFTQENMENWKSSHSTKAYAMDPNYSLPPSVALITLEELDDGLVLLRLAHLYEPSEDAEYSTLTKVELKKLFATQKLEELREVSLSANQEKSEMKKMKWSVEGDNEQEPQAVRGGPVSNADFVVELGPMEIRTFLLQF

[13] = Toxicity in C57BL/6J mouse assessed as change in blood HDL level at 2 mg/kg administered for 7 days; assay type: organism-based; conditions: in vivo, 168 h, time 7 day
[14] = Toxicity in C57BL/6J mouse assessed as heart pathological morphological changes at 2 mg/kg administered for 7 days by hematoxylin-eosin staining based analysis; assay type: organism-based; conditions: in vivo, 168 h, time 7 day
[15] = Renal toxicity in C57BL/6J mouse assessed as change in blood urea level at 2 mg/kg administered for 7 days; assay type: organism-based; conditions: in vivo, 168 h, time 7 day
[16] = Cytotoxicity against human GES1 cells assessed as cell viability at 125 uM; assay type: toxicity, cell-based; conditions: read-out: Activity
[17] = Toxicity in C57BL/6J mouse assessed as change in body weight at 2 mg/kg administered for 7 days; assay type: organism-based; conditions: in vivo, 168 h, time 7 day
[18] = molecular target: T2, Alpha-mannosidase (Canavalia ensiformis, UniProt C0HJB3); experiment: Inhibition of jack bean alpha-mannosidase
T2 sequence (C0HJB3 whole entry): T1 sequence (whole entry)

[19] = Renal toxicity in C57BL/6J mouse assessed as change in blood uric acid level at 2 mg/kg administered for 7 days; assay type: organism-based; conditions: in vivo, 168 h, time 7 day
[20] = Toxicity in C57BL/6J mouse assessed as change in GLU level at 2 mg/kg administered for 7 days; assay type: organism-based; conditions: in vivo, 168 h, time 7 day
[21] = Inhibition of alpha-glucosidase in Kunming mouse using p-nitrophenyl-alpha-glycopyranoside as substrate by Lineweaver-Burk plot analysis
[22] = Hepatotoxicity in C57BL/6J mouse assessed as change in serum AST level at 2 mg/kg administered for 7 days; assay type: toxicity, organism-based; conditions: in vivo, 168 h, time 7 day
[23] = Toxicity in C57BL/6J mouse assessed as change in CK level at 2 mg/kg administered for 7 days; assay type: organism-based; conditions: in vivo, 168 h, time 7 day
[24] = Toxicity in C57BL/6J mouse assessed as kidneys pathological morphological changes at 2 mg/kg administered for 7 days by hematoxylin-eosin staining based analysis; assay type: organism-based; conditions: in vivo, 168 h, time 7 day
[25] = Hepatotoxicity in C57BL/6J mouse assessed as change in serum ALP level at 2 mg/kg administered for 7 days; assay type: toxicity, organism-based; conditions: in vivo, 168 h, time 7 day
[26] = system: Mus musculus; experiment: Hypoglycemic activity in C57BL/6J mouse assessed as reduction in postprandial blood glucose level per DNJ nit at 0.5 to 2 mg/kg measured after 15 mins by maltose tolerance test relative to Miglitol; assay type: functional; conditions: dose 0.5-2 mg/kg, 0.25 h
[27] = Toxicity in C57BL/6J mouse assessed as change in blood cholesterol level at 2 mg/kg administered for 7 days; assay type: organism-based; conditions: in vivo, 168 h, time 7 day
[28] = Toxicity in C57BL/6J mouse assessed as change in blood triglyceride level at 2 mg/kg administered for 7 days; assay type: organism-based; conditions: in vivo, 168 h, time 7 day
[29] = Toxicity in C57BL/6J mouse assessed as reduction in blood LDL level at 2 mg/kg administered for 7 days; assay type: organism-based; conditions: in vivo, 168 h, time 7 day
[30] = Toxicity in C57BL/6J mouse assessed as lungs pathological morphological changes at 2 mg/kg administered for 7 days by hematoxylin-eosin staining based analysis; assay type: organism-based; conditions: in vivo, 168 h, time 7 day
[31] = Toxicity in C57BL/6J mouse assessed as spleen pathological morphological changes at 2 mg/kg administered for 7 days by hematoxylin-eosin staining based analysis; assay type: organism-based; conditions: in vivo, 168 h, time 7 day
[32] = system: Oryza sativa; experiment: Potency index, ratio of Miglitol Ki to test compound Ki for inhibition of rice alpha-glucosidase measured per DNJ unit
[33] = system: Mus musculus; experiment: Hypoglycemic activity in C57BL/6J mouse assessed as reduction in postprandial blood glucose level per DNJ unit at 0.5 to 1 mg/kg measured after 30 mins by maltose tolerance test relative to Miglitol; assay type: functional; conditions: dose 0.5-1 mg/kg
[34] = Toxicity in C57BL/6J mouse assessed as hepatic pathological changes by measuring hepatocytes distributed radially around the central veins at 2 mg/kg administered for 7 days by hematoxylin-eosin staining based analysis; assay type: organism-based; conditions: in vivo, 168 h, time 7 day
[35] = Hepatotoxicity in C57BL/6J mouse assessed as serum ALT level at 2 mg/kg administered for 7 days (reference value: 70.49 +/-8.78 U/L); assay type: toxicity, organism-based; conditions: in vivo, 168 h, time 7 day
[36] = Renal toxicity in C57BL/6J mouse assessed as blood urea level at 2 mg/kg administered for 7 days; assay type: organism-based; conditions: in vivo, 168 h, time 7 day
[37] = Hepatotoxicity in C57BL/6J mouse assessed as serum AST level at 2 mg/kg administered for 7 days (reference value: 221.38 +/-23.03 U/L); assay type: toxicity, organism-based; conditions: in vivo, 168 h, time 7 day
[38] = Renal toxicity in C57BL/6J mouse assessed as blood uric acid level at 2 mg/kg administered for 7 days; assay type: organism-based; conditions: in vivo, 168 h, time 7 day

Structure (SMILES)	inhibition in vivo at 2 mg/kg [1] [%]	Ki [2] [µM]	Activity [3] [mg/dL]	Activity [4] [mg/dL]	inhibition in vivo at 0.5 mg/kg [5] [%]	inhibition in vivo at 1 mg/kg [6] [%]	inhibition in vivo at 2 mg/kg [7] [%]	Activity [8] [mg/dL]	Ki [9] [µM]	inhibition in vivo at 1 mg/kg [10] [%]	inhibition in vivo at 0.5 mg/kg [11] [%]	Ratio Ki [12]	Activity [13]	Activity [14]	viability at 125 µM [16] [%]	Activity [17]	Ki [18] [µM]	Activity [20]	Ki [21] [µM]	Activity [23]	other results
OCCN1C[C@H](O)[C@@H](O)[C@H](O)[C@H]1CO [MIGLITOL]	41	0.18	233.28	287.55	23.1	30	39.2	273.6	20.8	27.3	22										
O=C1c2cc(Cl)c3c4c(Oc5ccc(OCc6cn(CCCN7C[C@H](O)[C@@H](O)[C@H](O)[C@H]7CO)nn6)cc5)cc5c6c(cc(Oc7ccc(OCc8cn(CCCN9C[C@H](O)[C@@H](O)[C@H](O)[C@H]9CO)nn8)cc7)c(c7c(Oc8ccc(OCc9cn(CCCN%10C[C@H](O)[C@@H](O)[C@H](O)[C@H]%10CO)nn9)cc8)cc(c2c37)C(=O)N1Cc1cn(CCCN2C[C@H](O)[C@@H](O)[C@H](O)[C@H]2CO)nn1)c64)C(=O)N(Cc1cn(CCCN2C[C@H](O)[C@@H](O)[C@H](O)[C@H]2CO)nn1)C5=O		0.01	287.49	323.49	18	26.9	31.9	304.2	8.04	23.8	12.3	175	Non-Toxic	Non-Toxic	92	Non-Toxic	0.12	Non-Toxic	0.31	Non-Toxic	Activity [15]: Non-Toxic; Activity [19]: Non-Toxic; Activity [22]: Non-Toxic; Activity [24]: Non-Toxic; Activity [25]: Non-Toxic; fold change (FC) [26]: 1.6; Activity [27]: Non-Toxic; Activity [28]: Non-Toxic; Activity [29]: 0.24 mmol/L; Activity [30]: Non-Toxic; Activity [31]: Non-Toxic; Ratio Ki [32]: 3.6; fold change (FC) [33]: 1.5; Activity [34]: Non-Toxic
O=C1c2cc(Oc3ccc(OCc4cn(CCCN5C[C@H](O)[C@@H](O)[C@H](O)[C@H]5CO)nn4)cc3)c3c4c(Oc5ccc(OCc6cn(CCCN7C[C@H](O)[C@@H](O)[C@H](O)[C@H]7CO)nn6)cc5)cc5c6c(cc(Oc7ccc(OCc8cn(CCCN9C[C@H](O)[C@@H](O)[C@H](O)[C@H]9CO)nn8)cc7)c(c7c(Oc8ccc(OCc9cn(CCCN%10C[C@H](O)[C@@H](O)[C@H](O)[C@H]%10CO)nn9)cc8)cc(c2c37)C(=O)N1Cc1cn(CCCN2C[C@H](O)[C@@H](O)[C@H](O)[C@H]2CO)nn1)c64)C(=O)N(Cc1cn(CCCN2C[C@H](O)[C@@H](O)[C@H](O)[C@H]2CO)nn1)C5=O	37.8	0.02	229.32	279.6	24.7	37	40.4	243.36	18.9	34.6	24.4	219	Non-Toxic	Non-Toxic	92	Non-Toxic	0.08	Non-Toxic	0.14	Non-Toxic	Activity [35]: 59.14 U/L; Activity [36]: 8.63 mmol/L; Activity [37]: 269.71 U/L; Activity [38]: 242.06 µmol/L; Activity [24]: Non-Toxic; fold change (FC) [26]: 2.1; Activity [27]: Non-Toxic; Activity [28]: Non-Toxic; Activity [29]: 0.3 mmol/L; Activity [30]: Non-Toxic; Activity [31]: Non-Toxic; Ratio Ki [32]: 1.5; fold change (FC) [33]: 2.1; Activity [34]: Non-Toxic
